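The compound was tested at five concentrations on cells cultured in 96-well plates, with a 48-hour exposure period. The concentration for 50% growth inhibition is given as GI50. At the TGI there is no net growth.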

Among the test systems are HT29 colon; MOLT-4 leukemia; NCI-H522 lung; NCI/ADR-RES ovarian; OVCAR-3 ovarian; OVCAR-4 ovarian; OVCAR-5 ovarian; SNB-75 CNS; SR leukemia; SK-MEL-2 melanoma.
Holding throughout (experiment): NCI tumour cell line growth inhibition, 48 h

For the compound `C=CS(=O)(=O)CCN1CC1`, the TGI in the experiment on HT29 colon, in the experiment with MOLT-4 leukemia, with NCI-H522 lung, in the experiment with NCI/ADR-RES ovarian, in the experiment on OVCAR-3 ovarian and with OVCAR-4 ovarian was greater than 10 µM each time. Moreover, the TGI in the experiment on OVCAR-5 ovarian, with SNB-75 CNS and with SR leukemia was greater than 10 µM throughout.
On to `O=C1C=CC(O)C2C1CC13SSC4(CC5C(=O)C=CC(O)C5N4C1=O)C(=O)N23` (configuration not stated), for which the TGI in the experiment with MOLT-4 leukemia was greater than 100 µM; with NCI-H522 lung it was 0.544 µM; with NCI/ADR-RES ovarian, 0.093 µM; in the experiment on OVCAR-3 ovarian it was 0.53 µM; with OVCAR-4 ovarian, 4.89 µM; in the experiment with OVCAR-5 ovarian, 0.571 µM. Moreover, the results for the TGI in the experiment with SK-MEL-2 melanoma, with SNB-75 CNS and in the experiment on SR leukemia were 3.56 µM, 5.14 µM and 0.0727 µM, respectively.
As to `O=C1CC(c2ccc(Cl)cc2)Oc2ccccc21` (configuration not stated), the TGI was 21.2 µM in the experiment with HT29 colon; 50.6 µM in the experiment on NCI/ADR-RES ovarian; greater than 100 µM in the experiment on OVCAR-4 ovarian; 37.8 µM in the experiment with SK-MEL-2 melanoma; 50.1 µM with SNB-75 CNS; 28 µM in the experiment with SR leukemia.
In the case of `COc1ccc2nc(NC(=O)c3cccnc3Nc3cc(OC)c(OC)c(OC)c3)sc2c1`, the GI50 was 17.7 µM with HT29 colon; 24.2 µM in the experiment on MOLT-4 leukemia; 2.6 µM in the experiment on NCI-H522 lung; 8.97 µM with NCI/ADR-RES ovarian; 8.92 µM in the experiment with OVCAR-3 ovarian; 15 µM in the experiment on OVCAR-4 ovarian. The GI50 in the experiment with OVCAR-5 ovarian is 14.5 µM; in the experiment on SNB-75 CNS, 2.89 µM; with SR leukemia it was 2.31 µM. Moreover, the TGI with HT29 colon was 39.2 µM; in the experiment on MOLT-4 leukemia, greater than 100 µM; in the experiment with NCI-H522 lung, 12 µM; in the experiment with NCI/ADR-RES ovarian it was 25.7 µM; in the experiment on OVCAR-3 ovarian it was 21.5 µM; with OVCAR-4 ovarian it was 32.6 µM. In addition, the TGI stood at 29 µM in the experiment with OVCAR-5 ovarian, 12.8 µM with SNB-75 CNS and 16.1 µM with SR leukemia.
Regarding `CCCNc1nc2ccccc2c2c1S(=O)(=O)c1ccc(Cl)cc1C2=O`, the GI50 with HT29 colon is 1.65 µM; with MOLT-4 leukemia it was 1.54 µM; in the experiment with NCI-H522 lung, 1.17 µM; in the experiment on NCI/ADR-RES ovarian it was 1.37 µM; in the experiment on OVCAR-3 ovarian, 0.944 µM; in the experiment on OVCAR-4 ovarian, 0.95 µM. For the same compound, the results for the GI50 in the experiment with SK-MEL-2 melanoma and in the experiment with SR leukemia were 1.92 µM and 0.79 µM, respectively. The TGI in the experiment with HT29 colon is greater than 50 µM; with MOLT-4 leukemia, greater than 50 µM; in the experiment with NCI-H522 lung, greater than 50 µM; with NCI/ADR-RES ovarian, greater than 50 µM; in the experiment on OVCAR-3 ovarian, 3.1 µM; in the experiment on OVCAR-4 ovarian it was greater than 50 µM. The TGI in the experiment on SK-MEL-2 melanoma and in the experiment with SR leukemia was greater than 50 µM each time.
Consider `Cc1cc(OCc2nnc3n2N=C(c2ccc(Cl)cc2Cl)CS3)ccc1Cl`, for which the GI50 was 59.8 µM with HT29 colon; 47.7 µM in the experiment on MOLT-4 leukemia; 22.6 µM in the experiment with NCI-H522 lung; 51.8 µM in the experiment on NCI/ADR-RES ovarian; 35.9 µM in the experiment on OVCAR-3 ovarian; 59.6 µM in the experiment on OVCAR-4 ovarian. The GI50 with OVCAR-5 ovarian was greater than 100 µM; with SK-MEL-2 melanoma, 76.2 µM; in the experiment on SR leukemia, 43.3 µM. Moreover, the TGI was greater than 100 µM in the experiment with HT29 colon; greater than 100 µM with MOLT-4 leukemia; 65 µM in the experiment with NCI-H522 lung; greater than 100 µM with NCI/ADR-RES ovarian; greater than 100 µM in the experiment with OVCAR-3 ovarian; greater than 100 µM with OVCAR-4 ovarian. In addition, the TGI in the experiment with OVCAR-5 ovarian, in the experiment with SK-MEL-2 melanoma and in the experiment on SR leukemia was greater than 100 µM each time.
With `CCN(CC)CCOc1ccc(C(=O)/C=C\c2ccc(Cl)cc2Cl)cc1`, the GI50 in the experiment with HT29 colon is 2.06 µM; in the experiment with NCI-H522 lung, 15.2 µM; with NCI/ADR-RES ovarian, 9.91 µM; in the experiment on OVCAR-3 ovarian, 3.84 µM; in the experiment with OVCAR-4 ovarian, 3.82 µM; in the experiment on OVCAR-5 ovarian, 10.3 µM. Besides, the GI50 in the experiment with SK-MEL-2 melanoma was 15 µM; in the experiment with SNB-75 CNS it was 2.53 µM; in the experiment on SR leukemia, 1.69 µM. In addition, the TGI in the experiment with HT29 colon is 5.62 µM; in the experiment with NCI-H522 lung, 35.6 µM; in the experiment on NCI/ADR-RES ovarian it was 23.3 µM; in the experiment with OVCAR-3 ovarian it was 14.3 µM; with OVCAR-4 ovarian it was 16.6 µM; in the experiment with OVCAR-5 ovarian it was 27.2 µM. Also, the TGI was 28.5 µM with SK-MEL-2 melanoma, 12.1 µM in the experiment with SNB-75 CNS and 5.34 µM in the experiment on SR leukemia.
As for `CN1C(Cl)=NS(=O)(=O)c2ccccc21`, the TGI in the experiment with HT29 colon, in the experiment with MOLT-4 leukemia, with NCI-H522 lung, with NCI/ADR-RES ovarian, with OVCAR-3 ovarian and in the experiment with OVCAR-4 ovarian was greater than 100 µM in each case. Besides, the TGI in the experiment on OVCAR-5 ovarian, in the experiment with SK-MEL-2 melanoma and in the experiment on SR leukemia was greater than 100 µM in each case.
Take `O=C1OC(OCC#CCOC2OC(=O)C(Cl)=C2Cl)C(Cl)=C1Cl` (configuration not stated): the TGI in the experiment on HT29 colon turned out to be 18.1 µM; in the experiment on MOLT-4 leukemia, 6.17 µM; with NCI-H522 lung, 3.72 µM; with NCI/ADR-RES ovarian, 75.3 µM; in the experiment on OVCAR-3 ovarian, 30.7 µM; with OVCAR-5 ovarian, 33.2 µM. Further, the TGI was found to be 32.2 µM in the experiment on SK-MEL-2 melanoma, 28.4 µM with SNB-75 CNS and 4.99 µM with SR leukemia.
As for `COc1ccc(Nc2c3ccccc3nc3[nH]c4ccccc4c23)cc1`, the GI50 was 16.6 µM in the experiment with HT29 colon; 2.35 µM with MOLT-4 leukemia; 41.5 µM in the experiment on NCI-H522 lung; 18.9 µM with NCI/ADR-RES ovarian; 19.4 µM in the experiment on OVCAR-3 ovarian; 26.7 µM in the experiment with OVCAR-5 ovarian. The GI50 with SK-MEL-2 melanoma was greater than 50 µM; with SR leukemia, 3.84 µM. Further, the TGI in the experiment with HT29 colon, in the experiment on MOLT-4 leukemia, in the experiment on NCI-H522 lung, in the experiment on NCI/ADR-RES ovarian, in the experiment on OVCAR-3 ovarian and with OVCAR-5 ovarian was greater than 50 µM in each case. The TGI in the experiment with SK-MEL-2 melanoma and in the experiment on SR leukemia was greater than 50 µM each time.
As to `CNC(=O)OCC1C2=C(C(=O)C(C)=C(N)C2=O)N2CC3C(N3C)C12OC` (configuration not stated), the TGI is 34.7 µM in the experiment with HT29 colon; 36.9 µM in the experiment on MOLT-4 leukemia; 19.2 µM in the experiment on NCI-H522 lung; greater than 100 µM in the experiment on NCI/ADR-RES ovarian; greater than 100 µM in the experiment on OVCAR-3 ovarian; 33 µM with OVCAR-4 ovarian. Also, the figures for the TGI in the experiment on OVCAR-5 ovarian, with SK-MEL-2 melanoma and in the experiment with SR leukemia were greater than 100 µM, 55.7 µM and greater than 100 µM, respectively.

For the origin of these results see PubChem BioAssay (NCI).
